Experiments:
PDX model CS266 = assay: Gastric cancer PDX transplantation tumor model; conditions: day 31; CTB006 10 mg/kg iv qd, Ponatinib 30 mg/kg p.o qd
Experimental: To test the in vivo pharmacodynamic efficacy of CTB006 in combination with Ponatinib, several tumor animal models were selected for testing, including pancreatic cancer cells MIA-PACA-2 CDX model and multiple PDX models covering multiple cancers of intestinal cancer (CS237, CS263, CS264), lung cancer (CS225), and gastric cancer (CS266, GAS033).
(§4) Patient-derived transplantation tumor models were established subcutaneously in nude mice or NOD/SCID mice, which was administered with CTB006 alone (10 mg/kg, iv, qd), Ponatinib alone (30 mg/kg, p.o, qd) the combination of them, while the control group was given an equal volume of saline.
At day 31 after administration, when the mean tumor volume of the negative control group and CTB006 alone group reached 1 cm^3, the negative control group was sacrificed, and the administration was stopped for 5-Fu positive control group, Ponatinib alone group and the combination group and the observation continued.

PDX model CS264 = assay: Colorectal cancer PDX transplantation tumor model; type: in vivo, nude mice or NOD/SCID mice; conditions: day 32 after administration; CTB006 10 mg/kg iv qd, Ponatinib 30 mg/kg p.o qd
From the text: (§5) To test the in vivo pharmacodynamic efficacy of CTB006 in combination with Ponatinib, several tumor animal models were selected for testing, including pancreatic cancer cells MIA-PACA-2 CDX model and multiple PDX models covering multiple cancers of intestinal cancer (CS237, CS263, CS264), lung cancer (CS225), and gastric cancer (CS266, GAS033). For mathematical statistics, ANOVA analysis was used, and P<0.05 indicates a statistically significant difference and is marked with *; P<0.01 indicates a highly significant statistical difference and is marked with **.
as §4

TE1 cells = assay: Tumor cell survival by ATPlite after 24 h incubation; CDI; type: cell-based
Experimental: (§1) The interaction between CTB006 antibody and Ponatinib: we used coefficient of drug interaction (CDI)^[1,2] to evaluate the combined effect of CTB006 antibody and chemotherapeutic drugs. CDI was calculated according to the following formula: CDI=AB/A×B; AB was the ratio of the detection values of the two-drug combination group to the control group (survival rate of the drug combination group), and A or B was the ratio of the detection values of each individual drug to the control group (survival rate of the drug alone group).
(§2) The survival of each tumor cell was observed by ATPlite method after incubation at 37° C., 5% CO2 for 24 h.

S2Lm7AA cells = assay: as above; type: cell-based
Experimental: as §1, §2

Huh-1 cells = assay: as above; type: cell-based
Experimental: as §1, §2

SK-HEP-1 cells = assay: as above; type: cell-based
Experimental: as §1, §2

SGC-7901 cells = assay: as above; type: cell-based
Experimental: as §1, §2

HT29 cells = assay: as above; type: cell-based
Experimental: as §1, §2

N87 cells = assay: as above; type: cell-based
Experimental: as §1, §2

PDX model GAS033 = assay: Gastric cancer PDX transplantation tumor model; type: in vivo, nude mice or NOD/SCID mice; conditions: day 16 after administration; CTB006 10 mg/kg iv qd, Ponatinib 30 mg/kg p.o qd
From the text: as §5, §4

PDX model CS263 = assay: Colorectal cancer PDX transplantation tumor model
From the text: as §5, §4

[1] = tested on: MIA-Paca-2 transplanted tumor; assay: Pancreatic cancer CDX model, subcutaneous transplantation; conditions: CTB006 10 mg/kg iv qw, Ponatinib 30 mg/kg p.o qd, alone or in combination, 22 days; euthanized at tumor volume 1 cm^3
Experimental: The CDX model was established by subcutaneous transplantation of MIA-Paca-2 in BALB/c nude mice (Vital River), and drug administration was started when the tumor volume was about 0.1 cm^3, and when it reached 1 cm^3, the animals were ethically euthanized and survival time was recorded. CTB006 (10 mg/kg, iv, qw) and Ponatinib (30 mg/kg, p.o, qd) were administered alone or in combination for treatment groups, and the control group was administered an equal volume of saline.

primary tumor cells S2 = assay: Killing of primary tumor cells from ovarian cancer ascites; CDI; type: cell-based
Experimental: as §1, §2

primary tumor cells S1 = assay: as above; type: cell-based
Experimental: as §1, §2

PDX model CS237 = assay: Colorectal cancer PDX transplantation tumor model; type: in vivo, nude mice or NOD/SCID mice; conditions: day 52 after administration; CTB006 10 mg/kg iv qd, Ponatinib 30 mg/kg p.o qd
From the text: as §5, §4

PDX model CS225 = assay: Lung cancer PDX transplantation tumor model; type: in vivo, nude mice or NOD/SCID mice; conditions: day 28 after administration; CTB006 10 mg/kg iv qd, Ponatinib 30 mg/kg p.o qd
From the text: as §5, §4

A549 cells = assay: Tumor cell survival by ATPlite after 24 h incubation; CDI; type: cell-based; conditions: for CDI: DR5 agonist in combination with Ponatinib
Experimental: as §1, §2
(§3) Methods were as described above.

MCF-7 cells = assay: as above; type: cell-based; conditions: for CDI: DR5 agonist in combination with Ponatinib
Experimental: as §1, §2, §3

S2VP10 cells = assay: as above; type: cell-based; conditions: for CDI: DR5 agonist in combination with Ponatinib
Experimental: as §1, §2, §3

For `O=c1[nH]cc(F)c(=O)[nH]1` [5-Fu], the “tumor inhibition rates (TGI)” value (PDX model CS266) was 57.5% and the “tumor inhibition rates (TGI)” value (PDX model CS264) was 31.2%.

For `Cc1ccc(C(=O)Nc2ccc(CN3CCN(C)CC3)c(C(F)(F)F)c2)cc1C#Cc1cnc2cccnn12` [Ponatinib], the “Survival Rate (%)” value (TE1 cells; Ponatinib alone 15.625 nM) was 107.94%, the “Survival Rate (%)” value (TE1 cells; Ponatinib alone 31.25 nM) was 103.25% and the “Survival Rate (%)” value (TE1 cells; Ponatinib alone 62.5 nM) was 104.04%. The “Survival Rate (%)” value (TE1 cells; Ponatinib alone 125 nM) was 100.27%, the “Survival Rate (%)” value (TE1 cells; Ponatinib alone 250 nM) was 97.30% and the “Survival Rate (%)” value (TE1 cells; Ponatinib alone 500 nM) was 89.97%. The “Survival Rate (%)” value (TE1 cells; Ponatinib alone 1000 nM) was 73.00%, the “Survival Rate (%)” value (S2Lm7AA cells; Ponatinib alone 15.625 nM) was 90.79% and the “Survival Rate (%)” value (S2Lm7AA cells; Ponatinib alone 31.25 nM) was 90.05%. The “Survival Rate (%)” value (S2Lm7AA cells; Ponatinib alone 62.5 nM) was 85.82%, the “Survival Rate (%)” value (S2Lm7AA cells; Ponatinib alone 125 nM) was 87.89% and the “Survival Rate (%)” value (S2Lm7AA cells; Ponatinib alone 250 nM) was 79.85%. The “Survival Rate (%)” value (S2Lm7AA cells; Ponatinib alone 500 nM) was 76.76%, the “Survival Rate (%)” value (S2Lm7AA cells; Ponatinib alone 1000 nM) was 77.11% and the “Survival Rate (%)” value (Huh-1 cells; Ponatinib alone 15.625 nM) was 97.49%. The “Survival Rate (%)” value (Huh-1 cells; Ponatinib alone 31.25 nM) was 92.59%, the “Survival Rate (%)” value (Huh-1 cells; Ponatinib alone 62.5 nM) was 91.15% and the “Survival Rate (%)” value (Huh-1 cells; Ponatinib alone 125 nM) was 83.68%. For the same molecule, the “Survival Rate (%)” value (Huh-1 cells; Ponatinib alone 250 nM) was 79.87%, the “Survival Rate (%)” value (Huh-1 cells; Ponatinib alone 500 nM) was 70.61% and the “Survival Rate (%)” value (Huh-1 cells; Ponatinib alone 1000 nM) was 64.68%. The “Survival Rate (%)” value (SK-HEP-1 cells; Ponatinib alone 15.625 nM) was 95.48%, the “Survival Rate (%)” value (SK-HEP-1 cells; Ponatinib alone 31.25 nM) was 92.47% and the “Survival Rate (%)” value (SK-HEP-1 cells; Ponatinib alone 62.5 nM) was 92.34%. The “Survival Rate (%)” value (SK-HEP-1 cells; Ponatinib alone 125 nM) was 84.53%, the “Survival Rate (%)” value (SK-HEP-1 cells; Ponatinib alone 250 nM) was 77.45% and the “Survival Rate (%)” value (SK-HEP-1 cells; Ponatinib alone 500 nM) was 68.54%. For the same molecule, the “Survival Rate (%)” value (SK-HEP-1 cells; Ponatinib alone 1000 nM) was 67.85%, the “Survival Rate (%)” value (SGC-7901 cells; Ponatinib alone 15.625 nM) was 100.08% and the “Survival Rate (%)” value (SGC-7901 cells; Ponatinib alone 31.25 nM) was 98.30%. For the same molecule, the “Survival Rate (%)” value (SGC-7901 cells; Ponatinib alone 62.5 nM) was 99.90%, the “Survival Rate (%)” value (SGC-7901 cells; Ponatinib alone 125 nM) was 95.83% and the “Survival Rate (%)” value (SGC-7901 cells; Ponatinib alone 250 nM) was 86.80%. The “Survival Rate (%)” value (SGC-7901 cells; Ponatinib alone 500 nM) was 75.77%, the “Survival Rate (%)” value (SGC-7901 cells; Ponatinib alone 1000 nM) was 61.42% and the “Survival Rate (%)” value (HT29 cells; Ponatinib alone 15.625 nM) was 102.78%. For the same molecule, the “Survival Rate (%)” value (HT29 cells; Ponatinib alone 31.25 nM) was 103.51%, the “Survival Rate (%)” value (HT29 cells; Ponatinib alone 62.5 nM) was 102.93% and the “Survival Rate (%)” value (HT29 cells; Ponatinib alone 125 nM) was 95.77%. The “Survival Rate (%)” value (HT29 cells; Ponatinib alone 250 nM) was 84.39%, the “Survival Rate (%)” value (HT29 cells; Ponatinib alone 500 nM) was 87.91% and the “Survival Rate (%)” value (HT29 cells; Ponatinib alone 1000 nM) was 80.77%. For the same molecule, the “Survival Rate (%)” value (N87 cells; Ponatinib alone 15.625 nM) was 87.89%, the “Survival Rate (%)” value (N87 cells; Ponatinib alone 31.25 nM) was 83.79% and the “Survival Rate (%)” value (N87 cells; Ponatinib alone 62.5 nM) was 84.36%. The “Survival Rate (%)” value (N87 cells; Ponatinib alone 125 nM) was 83.71%, the “Survival Rate (%)” value (N87 cells; Ponatinib alone 250 nM) was 82.65% and the “Survival Rate (%)” value (N87 cells; Ponatinib alone 500 nM) was 84.46%. The “Survival Rate (%)” value (N87 cells; Ponatinib alone 1000 nM) was 82.19%, the “tumor inhibition rate (TGI)” value (PDX model GAS033) was 37% and the “tumor inhibition rates (TGI)” value (PDX model CS263; day 44 after administration, CTB006 10 mg/kg iv qd, Ponatinib 30 mg/kg p.o qd) was 45.3%. The median survival (PDX model CS263; time to reach the mean tumor volume of 1.0 cm^3 as cutoff, administration stopped at day 44) was 56 days, the median survival time [1] was 34.5 days and the “Survival Rate (%)” value (primary tumor cells S2; Ponatinib alone 25 nM) was 101.93%. For the same molecule, the “Survival Rate (%)” value (primary tumor cells S2; Ponatinib alone 50 nM) was 109.27%, the “Survival Rate (%)” value (primary tumor cells S2; Ponatinib alone 100 nM) was 98.46% and the “Survival Rate (%)” value (primary tumor cells S2; Ponatinib alone 200 nM) was 90.46%. The “Survival Rate (%)” value (primary tumor cells S1; Ponatinib alone 25 nM) was 89.60%, the “Survival Rate (%)” value (primary tumor cells S1; Ponatinib alone 50 nM) was 101.09% and the “Survival Rate (%)” value (primary tumor cells S1; Ponatinib alone 100 nM) was 85.81%. The “Survival Rate (%)” value (primary tumor cells S1; Ponatinib alone 200 nM) was 82.23%, the “tumor inhibition rate (TGI)” value (PDX model CS237) was 43.8% and the “tumor inhibition rates (TGI)” value (PDX model CS225) was 50%. For the same molecule, the “tumor inhibition rates (TGI)” value (PDX model CS266) was 87.7%, the “tumor inhibition rates (TGI)” value (PDX model CS264) was 32.4% and the “Survival Rate (%)” value (A549 cells; Ponatinib alone 15.625 nM) was 101.54%. The “Survival Rate (%)” value (A549 cells; Ponatinib alone 31.25 nM) was 106.99%, the “Survival Rate (%)” value (A549 cells; Ponatinib alone 62.5 nM) was 105.05% and the “Survival Rate (%)” value (A549 cells; Ponatinib alone 125 nM) was 107.07%. The “Survival Rate (%)” value (A549 cells; Ponatinib alone 250 nM) was 104.14%, the “Survival Rate (%)” value (A549 cells; Ponatinib alone 500 nM) was 93.76% and the “Survival Rate (%)” value (A549 cells; Ponatinib alone 1000 nM) was 81.32%. The “Survival Rate (%)” value (MCF-7 cells; Ponatinib alone 15.625 nM) was 102.70%, the “Survival Rate (%)” value (MCF-7 cells; Ponatinib alone 62.5 nM) was 103.26% and the “Survival Rate (%)” value (MCF-7 cells; Ponatinib alone 250 nM) was 94.14%. The “Survival Rate (%)” value (MCF-7 cells; Ponatinib alone 1000 nM) was 68.81%, the “Survival Rate (%)” value (S2VP10 cells; Ponatinib alone 15.625 nM) was 98.02% and the “Survival Rate (%)” value (S2VP10 cells; Ponatinib alone 31.25 nM) was 97.47%. For the same molecule, the “Survival Rate (%)” value (S2VP10 cells; Ponatinib alone 62.5 nM) was 99.87%, the “Survival Rate (%)” value (S2VP10 cells; Ponatinib alone 125 nM) was 96.84% and the “Survival Rate (%)” value (S2VP10 cells; Ponatinib alone 250 nM) was 87.54%. The “Survival Rate (%)” value (S2VP10 cells; Ponatinib alone 500 nM) was 75.12% and the “Survival Rate (%)” value (S2VP10 cells; Ponatinib alone 1000 nM) was 69.06%.

With `CC(=O)O[C@H]1C(=O)[C@@]2(C)[C@H]([C@H](OC(=O)c3ccccc3)[C@]3(O)C[C@H](OC(=O)[C@H](O)[C@@H](NC(=O)c4ccccc4)c4ccccc4)C(C)=C1C3(C)C)[C@]1(OC(C)=O)CO[C@@H]1C[C@@H]2O` [Taxol] the “tumor inhibition rates (TGI)” value (PDX model CS225) was 50%.

For “AMG655: DR5 agonistic monoclonal antibody Conatumumab (AMG655, Amgen)”, the CDI (A549 cells) was 0.6362, the CDI (MCF-7 cells) was 0.317 and the killing effect (MCF-7 cells; drug alone) was “significant killing effect”. The killing effect (MCF-7 cells; used in combination) was “more significant” and the CDI (S2VP10 cells) was 0.8123.

B1: TRAIL: DR5 natural ligand TRAIL (Sino Biological) (protein, UniProt P50591 1-281, looked up)
Tumor necrosis factor ligand …: MAMMEVQGGPSLGQTCVLIVIFTVLLQSLCVAVTYVYFTNELKQMQDKYSKSGIACFLKEDDSYWDPNDEESMNSPCWQVKWQLRQLVRKMILRTSEETISTVQEKQQNISPLVRERGPQRVAAHITGTRGRSNTLSSPNSKNEKALGRKINSWESSRSGHSFLSNLHLRNGELVIHEKGFYYIYSQTYFRFQEEIKENTKNDKQMVQYIYKYTSYPDPILLMKSARNSCWSKDAEYGLYSIYQGGIFELKENDRIFVSVTNEHLIDMDHEASFFGAFLVG
B1 was tested, and the CDI (A549 cells) was 0.7329, the CDI (MCF-7 cells) was 0.3303 and the killing effect (MCF-7 cells; drug alone) was “did not have a significant killing effect”. For the same molecule, the CDI (S2VP10 cells) was 0.5179.

From US20230112450A1, “COMBINED USE OF CTB006 AND PONATINIB” (Beijing Sinotau Bio-Pharmaceuticals Technology Co., Ltd., priority 2020, published 2023)
